The record followed here is patent US6239125A, “Azetidinone derivatives for the treatment of HCMV infections” (Boehringer Ingelheim (Canada) Ltd., priority 1998, dated 2001).

Counter-ions that a name gives are not always drawn. Like-named read-outs stand apart in the source and are kept apart here. Non-standard residues stand in square brackets, D forms with d. Residues, ends and D or L forms follow the SMILES beside them. Tyr(3-NO2) = N[C@@H](Cc1ccc(O)c([N+](=O)[O-])c1)C(=O)O; 2Abz = Nc1ccccc1C(=O)O

The target of series [1] is T1, HCMV No protease (Human cytomegalovirus, UniProt P16753). The experiment in a line: HCMV No Protease Assay (fluorogenic substrate, IC50). The series is classed as biochemical. To be noted: fluorogenic substrate cleaved by HCMV No protease.
Series [2] concerns the target T1, HCMV No protease. The series is described as above. Format: biochemical. To be noted: HCMV No protease 100 nM, substrate 5 μM, 2.5 h at 30°, pH 8; Table 1 and Table 2. The procedure: This particular assay determines the ability of a test compound to inhibit the activity (IC50) of HCMV protease. More specifically, in the assay described herein, the inhibitory activity of the test compound is evaluated on the basis of its ability to interfere with the HCMV No protease cleavage of a fluorogenic peptide substrate which in turn is based on the maturation cleavage site of the enzyme.
1. HCMV No Protease Assay
Material & Methods: Fluorescence measurements were recorded on a Perkin-Elmer LS-50B spectrofluorimeter equipped with a plate reader accessory. UV measurements were recorded on a Thermomax® microplate reader from Molecular Devices Corporation, Menlo Park, Calif., USA.
The fluorescence increase upon cleavage of the Ala-Ser amide bond was monitored using excitation λ=312 nm (slit 2.5 nm) and emission λ=415 nm ([…]). A protocol adaptable to a 96-well plate format was designed for the determination of IC50 values of inhibitors.
No quenching was required before fluorescence measurement since the total scanning time by the plate reader accessory was brief relative to the duration of the reaction. The aqueous incubation buffer contained 50 mM tris(hydroxymethyl)aminomethane-HCl pH 8, 0.5M Na2 SO4, 50 mM NaCl, 0.1 mM EDTA, 1 mM tris(2-carboxyethyl)phosphine.HCl, 3% v/v DMSO and 0.05% w/v casein. The final concentrations of HCMV No protease (expressed in terms of total monomer concentration) and substrate were 100 nM and 5 μM respectively. IC50 values were obtained through fitting of the inhibition curve to a competitive inhibition model using SAS NLIN procedure. The mode of inhibition was determined by measurements of the initial rates (in cuvettes) at various substrate concentrations in the buffer as described above.

For series [3], the system named is HCMV (strain AD169, ATCC VR-538). The experiment in a line: Plaque Reduction Assay (PRA), HCMV-infected Hs-68 cells. Format: cell-based, human cytomegalovirus (HCMV). The protocol: B. Plaque Reduction Assay (PRA): Hs-68 cells (ATCC # CRL 1635) were seeded in 12-well plates at 83,000 cells/well in 1 mL of DMEM medium (Gibco Canada Inc.) supplemented with 10% fetal bovine serum (FBS, Gibco Canada Inc.). The plates were incubated for 3 days at 37° to allow the cells to reach 80-90% confluency prior to the assay.
The medium was removed from the cells by aspiration. The cells were then infected with approximately 50 PFU of HCMV (strain AD169, ATCC VR-538) in DMEM medium supplemented with 5% inactivated FBS (assay medium). (DMEM medium is commercially available and has been described by R. Dulbecco et al., Virology 1959, 8, 396.) The virus was allowed to adsorb to cells for 2 h at 37°. Following viral adsorption, the medium was removed from the wells by aspiration. The cells were then incubated with or without 1 mL of appropriate concentrations of test reagent in assay medium. Occasionally, test compounds were added 24 h post-infection. After 4 days of incubation at 37°, the medium was exchanged with fresh medium containing test compound and 4 days later the cells were fixed with 1% aqueous formaldehyde and stained with a 2% violet solution in 20% ethanol in water. Microscopic plaques were counted using a stereomicroscope. Drug effects were calculated as a percent reduction in the number of plaques in the presence of each drug concentration compared to the number observed in the absence of drug. Ganciclovir was used as a positive control in all experiments.
A general note: Plaque reduction counts the foci of infection that form in a cell layer.

Series [4] can be described thus: Cytotoxic effects, tetrazolium salt (MTT) metabolic assay. To be noted: cytotoxicity, Table 1 and Table 2, read-out: TC50 (the source's name). The series is classed as cell-based. The procedure: Cytotoxic effects noted as TC50 in the following tables were determined according to the tetrazolium salt (MTT) metabolic assay, F. Denizot and F. Lang, J. Immun. Meth., 1986, 89, 271.

Setting [5] is: Human betaherpesvirus 5, Hs68, plaque reduction, Hs-68 cells, HCMV strain AD169, Table 1 and Table 2, read-out: EC50.

T1 sequence (P16753 1-256): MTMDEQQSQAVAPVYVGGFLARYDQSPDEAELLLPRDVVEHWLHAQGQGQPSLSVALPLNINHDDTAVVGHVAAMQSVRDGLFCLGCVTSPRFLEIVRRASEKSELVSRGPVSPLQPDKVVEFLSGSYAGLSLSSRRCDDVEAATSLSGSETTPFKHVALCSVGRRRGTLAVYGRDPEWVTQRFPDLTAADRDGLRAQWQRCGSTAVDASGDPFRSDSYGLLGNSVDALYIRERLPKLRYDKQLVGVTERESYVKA

Turning to `CC(C)C[C@H](NC(=O)[C@H](CCCNC(=N)N)NC(=O)[C@H](CO)NC(=O)[C@H](CO)NC(=O)[C@H](C)NC(=O)[C@H](CC(N)=O)NC(=O)[C@@H](NC(=O)[C@@H](NC(=O)c1ccccc1N)C(C)C)C(C)C)C(=O)N[C@@H](Cc1ccc(O)c([N+](=O)[O-])c1)C(=O)N[C@@H](CCCNC(=N)N)C(=O)O` (H-[2Abz]VVNASSRL[Tyr(3-NO2)]R-OH), the “Kcat /KM” value on HCMV No protease [1] turned out to be 260 M⁻¹ s⁻¹.
In general, IC50 refers to the concentration needed to halve the response being measured. Read a low IC50 as greater potency. What is called EC50 is the concentration that produces a half-maximal response. For `CC(C)C[C@@H](CS[C@H]1CC(=O)N1C(=O)NCc1ccccc1)NC(=O)[C@@H](NC(=O)OC(C)(C)C)C(C)(C)C` [Entry 101], half-maximal inhibition against HCMV No protease [2] (IC50) was put at 0.4 µM. Besides, in series [3] (setting [5]), the 50% effective concentration (EC50) was greater than 11 µM. Besides, the CC50 in series [4] is greater than 11 µM.
As to `C[C@@H](NC(=O)N1C(=O)C[C@@H]1Sc1ccccc1)c1ccccc1` [Entry 102], the EC50 in series [3] (setting [5]) was found to be 40 µM. Also, in series [4], the CC50 is greater than 100 µM.
The molecule `C[C@@H](NC(=O)N1C(=O)C[C@@H]1SCc1ccccc1)c1ccccc1` [Entry 103] came in with a half-inhibitory concentration (IC50) on HCMV No protease [2] of 12.4 µM. Further, the 50% effective concentration (EC50) in series [3] (setting [5]) is greater than 5 µM. In series [4], the CC50 is greater than 5 µM.
Consider `C[C@@H](NC(=O)N1C(=O)C[C@@H]1SCCc1ccccc1)c1ccccc1` [Entry 104], for which, at HCMV No protease [2], half-maximal inhibition (IC50) required 6.5 µM. For the same molecule, the EC50 in series [3] (setting [5]) is greater than 4 µM. Moreover, the CC50 in series [4] is greater than 4 µM.
On HCMV No protease [2], `C[C@@H](NC(=O)N1C(=O)C[C@@H]1SC[C@H](CCS(C)(=O)=O)NC(=O)[C@@H](NC(=O)OC(C)(C)C)C(C)(C)C)c1ccccc1` [Entry 105] registered a half-maximal inhibitory concentration (IC50) of 0.2 µM. The concentration for a half-maximal effect (EC50) in series [3] (setting [5]) turned out to be 110 µM. Moreover, in series [4], the CC50 is greater than 250 µM.
For the molecule `C[C@@H](NC(=O)N1C(=O)C[C@H]1SC[C@H](CCS(C)(=O)=O)NC(=O)[C@@H](NC(=O)OC(C)(C)C)C(C)(C)C)c1ccccc1` [Entry 106], the half-maximal inhibitory concentration (IC50) on HCMV No protease [2] stood at 0.62 µM. Further, the EC50 in series [3] (setting [5]) amounted to 230 µM. For the same molecule, the CC50 in series [4] is greater than 250 µM.
On to `C[C@@H](NC(=O)N1C(=O)C[C@H]1[S+]([O-])c1ccccc1)c1ccccc1` (stereo partly drawn) [Entry 107], for which half-maximal inhibition on HCMV No protease [2] (IC50) was put at 9 µM.
On HCMV No protease [2], `C[C@@H](NC(=O)N1C(=O)C[C@@H]1[S+]([O-])c1ccccc1)c1ccccc1` (stereo partly drawn) [Entry 108] registered an IC50 of 4 µM.
`C[C@@H](NC(=O)N1C(=O)C[C@@H]1SCc1ccncc1)c1ccccc1` [Entry 109] displayed an IC50 on HCMV No protease [2] of 2.1 µM. Also, in series [3] (setting [5]), the EC50 is 65 µM. Also, the CC50 in series [4] is greater than 250 µM.
Take `C[C@@H](NC(=O)N1C(=O)C[C@@H]1SCc1cccnc1)c1ccccc1` [Entry 110]: on HCMV No protease [2], the midpoint of inhibition, the IC50, lay at 2 µM. In series [3] (setting [5]), the half-maximal effective concentration (EC50) stood at 96 µM. The CC50 in series [4] is greater than 200 µM.
For `C[C@@H](NC(=O)N1C(=O)C[C@@H]1SCc1ccccn1)c1ccccc1` [Entry 111], the IC50 against HCMV No protease [2] is 2.5 µM. The concentration for a half-maximal effect (EC50) in series [3] (setting [5]) was determined as 60 µM. Besides, the CC50 in series [4] is 180 µM.
In turn, `C[C@@H](NC(=O)N1C(=O)C[C@@H]1SCC(=O)c1ccccc1)c1ccccc1` [Entry 112] showed an IC50 at HCMV No protease [2] of 1 µM. Moreover, the EC50 in series [3] (setting [5]) is greater than 37 µM. In series [4], the CC50 was greater than 37 µM.
In the case of `CC[C@@H](NC(=O)N1C(=O)C[C@@H]1SCc1ccccn1)c1ccccc1` [Entry 114, 4(S)-{(2-pyridinylmethyl)thio}azetidin-2-one-1-carboxylic acid (1(R)-phenylpropyl)amide hydrochloride], at HCMV No protease [2], the IC50 is 1.2 µM. Further, in series [3] (setting [5]), the 50% effective concentration (EC50) came to 80 µM. Besides, in series [4], the CC50 is greater than 200 µM.
Taken in the same sequence, the figures for `CC[C@@H](NC(=O)N1C(=O)C[C@@H]1SC[C@H](CC(C)C)NC(=O)[C@@H](NC(=O)CC(C)(C)C)C(C)(C)C)c1ccccc1` [Entry 115] were less than 0.06 µM, greater than 250 µM and greater than 250 µM.
The molecule `O=C1C[C@H](SCc2ccccn2)N1C(=O)N[C@H](CO)c1ccccc1` [Entry 116] came in with a half-maximal inhibitory concentration (IC50) on HCMV No protease [2] of 3.6 µM.
Take `CC(C)C[C@@H](CO[C@@H]1CC(=O)N1C(=O)NCc1ccccc1)NC(=O)OC(C)(C)C` [Entry 201]: on HCMV No protease [2], the half-maximal inhibitory concentration (IC50) worked out at 44 µM.
`CC(C)C[C@@H](CO[C@@H]1CC(=O)N1C(=O)NCc1ccccc1)NC(=O)[C@@H](NC(=O)OC(C)(C)C)C(C)(C)C` [Entry 202]: the half-maximal inhibitory concentration (IC50) against HCMV No protease [2] worked out at 1.3 µM. The response in series [3] (Human betaherpesvirus 5, AD169, Hs68) was half-maximal at 64 µM (EC50). Further, in series [4], the CC50 is greater than 52 µM.
`CC(C)C[C@@H](CO[C@H]1CC(=O)N1C(=O)N[C@H](C)c1ccccc1)NC(=O)[C@@H](NC(=O)OC(C)(C)C)C(C)(C)C` [Entry 203] gave a concentration for half-maximal inhibition (IC50) against HCMV No protease [2] of 0.32 µM. For the same molecule, the EC50 in series [3] (setting [5]) was greater than 49 µM. Further, the CC50 in series [4] is greater than 49 µM.
At HCMV No protease [2], `CC(C)C[C@@H](CO[C@@H]1CC(=O)N1C(=O)NCc1ccccc1)NC(=O)[C@@H](NC(=O)CC(C)(C)C)C(C)(C)C` [Entry 204] came in with an IC50 of 0.16 µM.
As to `CN(C(=O)CC(CO[C@@H]1CC(=O)N1C(=O)NCc1ccccc1)NC(=O)CC(C)(C)C)C(C)(C)C` (stereo partly drawn) [Entry 205], the IC50 against HCMV No protease [2] was 5 µM. Besides, the concentration giving a half-maximal response (EC50) in series [3] (setting [5]) was greater than 250 µM. For the same molecule, the CC50 in series [4] is greater than 250 µM.
On HCMV No protease [2], `C[C@@H](NC(=O)N1C(=O)C[C@H]1Oc1ccc(Cl)cc1)c1ccccc1` [Entry 206] had an IC50 of 1.6 µM.
As to `C[C@@H](NC(=O)N1C(=O)C[C@@H]1Oc1ccc(Cl)cc1)c1ccccc1` [Entry 207], on HCMV No protease [2], half-maximal inhibition (IC50) required 0.8 µM. In addition, the concentration giving a half-maximal response (EC50) in series [3] (setting [5]) worked out at 250 µM. The CC50 in series [4] is greater than 250 µM.
Take `C[C@@H](NC(=O)N1C(=O)C[C@@H]1OCCNC(=O)c1ccc(NC(=O)CC(C)(C)C)cc1)c1ccccc1` [Entry 208]: 21 µM corresponded to half-maximal inhibition against HCMV No protease [2] (IC50).
Consider `COC(=O)[C@@H](C)O[C@@H]1CC(=O)N1C(=O)N[C@H](C)c1ccccc1` [Entry 209], for which, on HCMV No protease [2], the 50% inhibitory concentration (IC50) was determined as 21.5 µM.
Still for that read-out and setting: then `COC(=O)[C@H](C)O[C@H]1CC(=O)N1C(=O)N[C@H](C)c1ccccc1` [Entry 210], with 3.8 µM.
